Data published in US20250114431A1, “COMPOUND, COMPOSITION AND METHODS FOR LOWERING CIRCULATING GLUCOSE” (THE HONG KONG POLYTECHNIC UNIVERSITY, priority 2023, published 2025).

Tested on: MIN6 pancreatic beta cells
Test: Glucose stimulated insulin secretion assay in MIN6 cells (mouse insulin ELISA)
Assay type: cell-based
Conditions: 100 nM, positive control; FIG. 5A
Experimental: To verify that the glucose homeostasis is regulated through liver or hepatocytes by overexpression of Plac9 in an insulin-independent manner, an in vitro insulin secretion assay was performed on confluent pancreatic beta cells, MIN6, in each well treated by […] of Exendin-4 or different concentrations of recombinant Plac9 of mouse origin at 10, 100 and 1000 nM (n=8) and measured the insulin content of each well by a mouse insulin ELISA kit. […] A glucose uptake assay was performed on primary hepatocytes and hepatic cell line, HepG2, treated with different concentrations (from 0.125 or 0.25 to 1.0 μM) in the presence or absence of exogenous 10 nM insulin, and the results are shown in FIGS. 5B and 5C, respectively.

Exendin-4 [reference compound]
insulin secretion: significantly induces insulin secretion
